This is an account of results in publication PMC11962866 (RSC Advances, 2025).

The test system of one data set is C. alb (SC5314). Description: In vitro antifungal assay. The format is cell-based. The conditions noted are these: Candida albicans, SC5314, read-out: MIC80 C. alb (SC5314).
For another data set, the system named is C. neo. Description: In vitro antifungal assay. Type of data set: cell-based. The conditions noted are these: Cryptococcus neoformans, read-out: MIC80 C. neo.
Data set [1] deals with Strain 904. Description: Antifungal activity against fluconazole-resistant strain. Type of data set: cell-based, Candida albicans.
The next data set deals with Strain 901. The data set is described as above. The format is cell-based. The conditions noted are these: Candida albicans, 901, read-out: MIC80 Strain 901.
In a further data set the test system is Strain 632. The description is as above. The format is cell-based. The conditions noted are these: Candida albicans, 632, read-out: MIC80 Strain 632.
A further data set deals with Strain 17#. The data set is described as above. The format is cell-based. Conditions: Candida albicans, read-out: MIC80 Strain 17#.
In the next data set the test system is Strain CaR. The data set is described as above. The format is cell-based. Conditions: Candida albicans, read-out: MIC80 Strain CaR.
Data set [2] relates to strain 904, fluconazole-resistant strain of C. albicans. Description: Minimum fungicidal concentration. The format is cell-based, Candida albicans. The conditions noted are these: strain 904.
A short description of data set [3]: Metabolic stability assay of liver microsomes. The format is in vitro ADME. The conditions noted are these: mouse.
In the next data set the test system is MRC-5 cells. Description: Cytotoxicity assay on normal cells. Type of data set: cell-based, human. Conditions: Homo sapiens, MRC5, 72 h, read-out: IC50 on MRC-5 cell lines.
For data set [4], the system named is azole-resistant strain 904. Description: In vivo antifungal potency, mouse infection model, kidney fungal burden. Conditions: mice, tail vein infection with strain 904, intraperitoneal, day 5.
Data set [5] has as its system C. alb SC5314. Description: GC-MS analysis of sterol composition. Type of data set: cell-based, Candida albicans. The conditions noted are these: 0.03 μg mL^−1, 24 h.
Data set [6] has as its system C. alb SC5314. Description: Morphological observation of fungal cells by TEM. Type of data set: cell-based, Candida albicans. The conditions noted are these: 2 μg mL^−1, 24 h.
For data set [7], the system named is azole-resistant strain 904. Description: Yeast-to-hypha morphological transition. Type of data set: cell-based, Candida albicans. Conditions: 0.25 μg mL^−1, 5 h.
The subject of data set [8] is azole-resistant strain 904. Description: Biofilm formation. The format is cell-based, Candida albicans.
Data set [9] has as its system ERG11 and CDR1 of azole-resistant strain 904. Description: RT-PCR expression of resistant genes ERG11 and CDR1. The format is cell-based, Candida albicans. Conditions: 0.25 μg mL^−1, strain 904, RT-PCR.
For data set [10], the system named is Strain 904. Description: Time-kill test. Type of data set: cell-based, Candida albicans. The conditions noted are these: A11 at 8 × MIC, 16 × MIC, 32 × MIC.
Data set [11] relates to Strain 904. Description: ROS level. The format is cell-based, Candida albicans. Conditions: 0.25 μg mL^−1, compared to blank and fluconazole groups.
In data set [12] the test system is five fluconazole-resistant strains obtained from clinical isolation. Description: Antifungal activity, span over five fluconazole-resistant strains. The conditions noted are these: Candida albicans, read-out: MIC80 span over the tested resistant strains. The format is cell-based, Candida albicans.
The nature of a further data set: Plasma stability assay. The conditions noted are these: male, SD, rat.

SMILES strings stand for the structures. ≈ marks a conversion by molar mass, not a printed value. Entries after “also recorded” stand apart in the source; their conditions may differ.

A word on the MIC80: it is the lowest concentration that inhibits either 80% of growth or 80% of the strains tested, depending on the study. By MIC is commonly meant the lowest concentration that inhibits growth of the organism. For orientation: half-life means the time needed for the level to fall by half in the phase considered. Lower therefore signals rapid decline. In general, microsomal CLint refers to the rate of metabolic loss divided by the concentration. The low end stands for slow turnover, the high end for rapid turnover. What is called IC50 is the point on the concentration scale where inhibition reaches its midpoint. The term amount remaining denotes the share of the starting amount still present when the sample was taken. Take `O=C(Nc1ccc(F)cc1F)c1ccc(COC(Cn2ccnc2)c2ccc(Cl)cc2Cl)cc1` (centres unmarked) [A11, 4-((1-(2,4-Dichlorophenyl)-2-(1H-imidazol-1-yl)ethoxy)methyl)-N-(2,4-difluorophenyl)benzamide]: the MIC80 with C. alb (SC5314) was found to be 0.03 µg/mL (≈ 0.0597 µM); in the data set on C. neo it was 0.06 µg/mL (≈ 0.119 µM); in the data set with Strain 904 [1] (Candida albicans, 904, read-out: MIC80 Strain 904) it was 0.125 µg/mL (≈ 0.249 µM); in the data set with Strain 901 it was 1 µg/mL (≈ 1.99 µM); with Strain 632, 2 µg/mL (≈ 3.98 µM); in the data set on Strain 17# it was 1 µg/mL (≈ 1.99 µM). Besides, the MIC80 is 2 µg/mL (≈ 3.98 µM) in the data set on Strain CaR and 0.125 to 2 µg/mL (≈ 0.249 to 3.98 µM) in data set [12]. In addition, in the data set with Strain 904 [1] (Candida albicans, 904, read-out: MIC against C. alb), the minimal inhibitory concentration (MIC) was determined as 0.125 µg/mL (≈ 0.249 µM). The compound further gave an MFC/MIC in data set [2] of 16. Also, the half-life in [3] was 15.5 min; in “Plasma stability assay”, greater than 360 min. The intrinsic metabolic clearance (microsomal CLint) in [3] amounted to 89.4 µL/min/mg. Also, the IC50 in the data set on MRC-5 cells is greater than 100 µM. Also, the “Efficacy in vivo (CFU fungal burden in kidneys)” value in data set [4] was “potent efficacy; also recorded: significantly reduced fungal burden”. Further, the “Effect on ergosterol biosynthesis / sterol composition” value in the data set on C. alb SC5314 [5] was “effectively suppresses ergosterol biosynthesis”. The “Fungal cell morphology (TEM)” value in the data set on C. alb SC5314 [6] is listed as “disrupt the structural integrity of the cells”. Moreover, the “Morphological transition from yeast to hyphae” value in data set [7] is “completely hindered the morphogenetic transition”. Also, the “Effect on mature biofilms” value in data set [8] is reported as “dose-dependent destruction of mature fungal biofilms”. Besides, the “Expression of ERG11 and CDR1” value in data set [9] is reported as “reduced to basic levels”. The Time-kill fungicidal effect entry with Strain 904 [10] is given as “potent fungicidal effects at three concentrations”. Also, in the data set with Strain 904 [11], the “Intracellular ROS levels” value is “significant increase in intracellular ROS levels”. In the data set “Plasma stability assay”, this compound gave a share remaining at 3 h of 73.9%.
